As usually defined, the IC50 is the concentration that inhibits the measured activity by half. Low readings indicate inhibition by little substance, high ones a need for much substance.

Where a name gives a salt, the structure may show the parent alone.

This passage reports IC50 results from publication PMC12682947, “Identification of New KCNT1‐Epilepsy Drugs by In Silico, Cell, and Drosophila Modeling” (Annals of Neurology, 2025).

The experiment has as its target T1, G288S mutant KCNT1 channels (Homo sapiens, UniProt Q5JUK3, G269S).
T1 construct: YFP-6His; expressed in transfected cells; host or cells: HEK293T
T1 sequence (Q5JUK3 1-1235 isoform Q5JUK3-3 G288S): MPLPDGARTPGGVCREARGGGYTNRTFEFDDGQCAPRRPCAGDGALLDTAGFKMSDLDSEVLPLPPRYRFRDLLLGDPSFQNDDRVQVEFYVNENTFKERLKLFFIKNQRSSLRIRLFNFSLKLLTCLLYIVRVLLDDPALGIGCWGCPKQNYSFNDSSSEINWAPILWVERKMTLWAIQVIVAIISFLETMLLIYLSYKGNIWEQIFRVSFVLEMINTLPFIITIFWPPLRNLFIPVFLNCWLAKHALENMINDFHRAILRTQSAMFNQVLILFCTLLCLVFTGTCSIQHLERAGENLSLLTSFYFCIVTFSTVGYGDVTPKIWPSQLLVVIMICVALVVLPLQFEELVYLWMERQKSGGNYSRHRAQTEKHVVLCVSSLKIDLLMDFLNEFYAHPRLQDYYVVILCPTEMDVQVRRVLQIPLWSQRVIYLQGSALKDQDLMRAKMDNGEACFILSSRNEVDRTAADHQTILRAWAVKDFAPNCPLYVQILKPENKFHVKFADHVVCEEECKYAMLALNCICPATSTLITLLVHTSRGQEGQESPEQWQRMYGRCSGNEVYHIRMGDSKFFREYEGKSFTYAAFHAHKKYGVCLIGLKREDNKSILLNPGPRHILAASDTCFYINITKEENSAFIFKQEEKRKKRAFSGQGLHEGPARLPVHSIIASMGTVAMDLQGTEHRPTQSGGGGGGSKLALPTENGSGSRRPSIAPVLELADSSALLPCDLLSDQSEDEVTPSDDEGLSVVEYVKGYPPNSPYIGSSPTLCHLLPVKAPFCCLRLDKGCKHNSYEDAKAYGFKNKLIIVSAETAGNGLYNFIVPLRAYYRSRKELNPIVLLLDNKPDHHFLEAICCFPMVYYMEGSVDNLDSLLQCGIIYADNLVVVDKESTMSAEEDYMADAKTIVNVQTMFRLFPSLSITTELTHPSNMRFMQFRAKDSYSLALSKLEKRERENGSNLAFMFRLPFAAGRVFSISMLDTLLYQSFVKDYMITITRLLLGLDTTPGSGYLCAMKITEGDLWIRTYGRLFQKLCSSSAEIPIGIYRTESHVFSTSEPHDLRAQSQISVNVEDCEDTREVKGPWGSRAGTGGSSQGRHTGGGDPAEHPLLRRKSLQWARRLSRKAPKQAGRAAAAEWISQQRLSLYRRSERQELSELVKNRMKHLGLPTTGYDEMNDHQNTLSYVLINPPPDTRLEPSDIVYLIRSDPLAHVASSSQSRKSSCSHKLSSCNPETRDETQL
Put plainly: Inside-out patch clamp of HEK293T cells expressing G288S KCNT1. It counts as cell-based. As to conditions: inside-out patches, mean ± SEM. Here is the method: The CHO cells were cultured in Dulbecco's modified Eagle's Medium (ThermoFisher, UK) supplemented with 10% (v/v) fetal bovine serum, 50 U/ml penicillin and 0.05 mg/ml streptomycin, and incubated at 37°C in 5% CO2 atmosphere. For whole cell recording of WT/Y796H KCNT1, CHO cells were transiently co‐transfected with concatemeric WT/Y796H and EYFP, as described previously.[29] For electrophysiological experiments, cells were plated onto borosilicate glass cover slips and used 2 to 4 days later. Human embryonic kidney 293T cells (HEK293T) were cultured in the same manner, but with medium supplemented with 2 mM L‐glutamine, and 1% (v/v) nonessential amino acids. For excised inside‐out recording of homomeric WT or mutant YFP‐tagged KCNT1, HEK293T cells plated on glass cover slips were transfected using Attractene Transfection Reagent (Qiagen, Germany) according to the manufacturer's instructions and used 2 to 3 days later.
Inside‐out patch clamp recordings were made at room temperature (23°C) from transiently transfected HEK293T cells, as described previously.[11] The pipette solution contained, in mM, 140 NaCl, 4 KCl, 2 CaCl2, 2 MgCl2, and 10 HEPES adjusted to pH 7.4 with NaOH. […] KCNT1 currents were recorded using 2 voltage protocols, depending on the number of active channels in the patch before drug application. Macroscopic currents (number of active channels > 15) were recorded in response to 100 ms voltage ramps between −120 and 120 mV applied every 2 seconds from a holding potential of −78 mV. […] With a lower number of active channels in the patch (3–15), current traces were recorded in response to 15‐second voltage steps to −20, 0, and 20 mV from a holding potential of −78 mV. Currents recorded at each voltage and each drug concentration were averaged over the duration of the trace and normalized to the average amplitudes of the corresponding current traces in drug‐free solution. […] Single channel data were analyzed using Ana software developed by Dr Michael Pusch (Istituto di Biofisica, Genova, Italy; http://users.ge.ibf.cnr.it/pusch/programs-mik.htm). […]

Compound `O=C(OCCN1CCN(c2cccc(C(F)(F)F)c2)CC1)c1ccccc1Nc1ccnc2cc(C(F)(F)F)ccc12` [antrafenine] yielded an IC50 of 13.3 ± 3.7 nM.
Compound `Cc1c(O)cccc1C(=O)N[C@@H](CSc1ccccc1)[C@H](O)CN1C[C@H]2CCCC[C@H]2C[C@H]1C(=O)NC(C)(C)C` [nelfinavir mesylate] had an IC50 of 9.5 ± 1.8 nM.
`CC(C)c1c(C(=O)Nc2ccccc2)c(-c2ccccc2)c(-c2ccc(F)cc2)n1CC[C@@H](O)C[C@@H](O)CC(=O)O` [atorvastatin] yielded an IC50 of 2600 ± 1600 nM.
